According to patent US5585353A, “Antibiotic peptides containing D-amino acids” (The Rockefeller University, priority 1994, dated 1996):
Where two headings read alike, the source gives them in different places. Residues, ends and D or L forms follow the SMILES beside them. No end group written: not given here.

Tests used:
E. coli D21 = experiment: inhibition zone assay, lethal concentration; assay type: cell-based; conditions: E. coli D21, thin agarose plates
Method: (§1) Thin agar or agarose plates (8.5 cm diameter) were prepared with 6 ml of rich medium containing 100 ug/ml of streptomycin and 2×10^5 viable cells of a test organism resistant to streptomycin. Wells of 3.5 mm diameter were punched in the plates and 3 ul of serially diluted samples were placed in the wells. The diameters of the zones of inhibition around the wells were measured after overnight incubation at 30° or 37° C. For each peptide the squares of the zone diameters were plotted against the logarithm of the concentration, and from the slopes and intercepts the lethal concentrations were calculated as described by Hultmark (1983) EMBO J. 2, 571-76 or Hultmark et al (1982) Eur. J. Biochem. 127 207-217 each of which being incorporated herein by reference.
(§2) Lethal Concentrations calculated from inhibition zones on thin agarose
(§3) plates seeded with the respective organisms. D21: E. coli; OT97: P.

P. aeruginosa OT97 = experiment: inhibition zone assay, lethal concentration; assay type: cell-based; conditions: P. aeruginosa OT97, thin agarose plates
Method: as §1, §2, §3
(§4) aeruginosa; Bs11: B. subtilis; +ME: plates prepared with medium E; Staph: […]

B. subtilis Bs11 = experiment: inhibition zone assay, lethal concentration; assay type: cell-based; conditions: for Lethal Concentrations Bs11 +ME: B. subtilis Bs11, plates prepared with medium E; for Lethal Concentrations Bs11: B. subtilis Bs11, thin agarose plates
Method: as §1, §2, §4

S. aureus Cowan 1 = experiment: inhibition zone assay, lethal concentration; assay type: cell-based; conditions: S. aureus Cowan 1, thin agarose plates
Method: as §1, §2
aeruginosa; Bs11: B. subtilis; +ME: plates prepared with medium E; Staph:
(§5) S. aureus Cowan 1; Strep: S. pyogenes; SRC: Sheep red cells.; *all amino

S. pyogenes = experiment: inhibition zone assay, lethal concentration; assay type: cell-based; conditions: thin agarose plates
Method: as §1, §2, §5

Sheep red cells = experiment: inhibition zone assay, lethal concentration on sheep red cells; assay type: cell-based; conditions: thin agarose plates
Method: as §1, §2, §5

[1] = target: immune inhibitor A (In A) (Bacillus thuringiensis subsp. alesti, UniProt P23382); assay type: in vitro ADME; conditions: 20 min at 36° C.; for Zone of inhibition: E. coli D21 plates
Method: (§6) FIGS. 1 and 2 graphically illustrate the resistance of the compounds of this invention to enzymatic hydrolysis by trypsin or immune inhibitor A (In A). The experiments were conducted as follows:
(§7) The original solutions of the enzymes contained 5 mg/ml in the case of trypsin and 0.1 mg/ml in the case of InA. These two samples were diluted as follows: A 10^-1, B 10^-2, C 10^-3 and D 10^-4. From each dilution, 2 ul were mixed with 2 ul of two peptides (D-CA and L-CA, both containing 1.3 ug/ul=162 pmol/ul). Control mixtures were made with 2 ul water and 2 ul peptide. All samples were incubated for 20 min at 36° C. Before and after the incubation, all samples were kept on ice. After the incubation 3 ul were placed in wells on plates seeded with E. coli D21 in order the determine the amount of antibiotic that was left. The diameter of the inhibition zone was recorded and compared with a previously prepared a standard curve. Results are as given in the table and illustrated in the figures.

[2] = tested on: immune inhibitor A (In A); assay type: in vitro ADME; conditions: InA series, Control (no Enzyme), 20 min at 36° C.; for Zone of inhibition: peptide with water
Method: as §6, §7

trypsin = experiment: proteolytic resistance to trypsin, residual antibiotic by inhibition zone on E. coli D21; assay type: in vitro ADME; conditions: 20 min at 36° C.
Method: as §6, §7

[3] = InA dilution A (10^-1 of 0.1 mg/ml)
[4] = Trypsin dilution A (10^-1 of 5 mg/ml), E. coli D21 plates
[5] = Trypsin dilution B (10^-2), E. coli D21 plates
[6] = Trypsin dilution C (10^-3), E. coli D21 plates
[7] = Trypsin dilution D (10^-4), E. coli D21 plates
[8] = Trypsin series, Control (no enzyme)
[9] = Trypsin series, Control (no enzyme), peptide with water

Sequence of immune inhibitor A (In A) (Bacillus thuringiensis subsp. alesti, UniProt P23382) (P23382 41-687): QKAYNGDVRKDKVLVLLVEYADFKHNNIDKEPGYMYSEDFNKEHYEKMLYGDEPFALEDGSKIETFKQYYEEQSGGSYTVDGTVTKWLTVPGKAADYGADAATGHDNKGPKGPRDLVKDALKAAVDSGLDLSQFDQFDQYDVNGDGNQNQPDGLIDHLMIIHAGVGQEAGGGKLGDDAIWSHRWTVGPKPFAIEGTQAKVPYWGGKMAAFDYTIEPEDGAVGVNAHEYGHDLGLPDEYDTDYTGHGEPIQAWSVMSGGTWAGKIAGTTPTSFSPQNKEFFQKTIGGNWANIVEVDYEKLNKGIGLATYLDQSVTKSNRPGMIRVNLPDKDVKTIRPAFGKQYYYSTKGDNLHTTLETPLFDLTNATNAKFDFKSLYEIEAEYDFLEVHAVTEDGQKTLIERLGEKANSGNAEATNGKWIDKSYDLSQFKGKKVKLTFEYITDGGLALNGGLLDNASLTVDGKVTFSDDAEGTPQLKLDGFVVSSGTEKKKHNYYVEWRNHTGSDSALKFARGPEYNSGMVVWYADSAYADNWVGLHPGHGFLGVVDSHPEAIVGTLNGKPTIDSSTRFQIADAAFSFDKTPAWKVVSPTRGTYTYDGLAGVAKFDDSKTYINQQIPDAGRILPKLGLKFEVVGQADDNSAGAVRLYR

Compound: KWKLFKKIEKVGQNIRDGIIKAGPAVAVVGQATQIAK-NH2 [Compound 1, Cecropin A]
- Lethal Concentrations D21 (E. coli D21): 0.2 µM
- Lethal Concentrations OT97 (P. aeruginosa OT97): 1 µM
- Lethal Concentrations Bs11 +ME (B. subtilis Bs11): 60 µM
- Lethal Concentrations Bs11 (B. subtilis Bs11): 3 µM
- Lethal Concentrations Staph (S. aureus Cowan 1): > 300 µM
- Lethal Concentrations Strep (S. pyogenes): 5 µM
- Lethal Concentrations SRC (Sheep red cells): > 200 µM
- Amount of peptide left ([1]; InA dilution A (10^-1)): 0 pmol
- Conc. ([1]; InA dilution A (10^-1)): 0 pmol/µL
- Percent remaining ([1]; InA dilution A (10^-1)): 0%
- Zone of inhibition [1, 3]: None
- Amount of peptide left ([1]; InA dilution B (10^-2)): 316 pmol
- Conc. ([1]; InA dilution B (10^-2)): 105 pmol/µL
- Percent remaining ([1]; InA dilution B (10^-2)): 65%
- Zone of inhibition ([1]; InA dilution B (10^-2)): 1.42 cm
- Amount of peptide left ([1]; InA dilution C (10^-3)): 442 pmol
- Conc. ([1]; InA dilution C (10^-3)): 147 pmol/µL
- Percent remaining ([1]; InA dilution C (10^-3)): 91%
- Zone of inhibition ([1]; InA dilution C (10^-3)): 1.48 cm
- Amount of peptide left ([1]; InA dilution D (10^-4)): 469 pmol
- Conc. ([1]; InA dilution D (10^-4)): 156 pmol/µL
- Percent remaining ([1]; InA dilution D (10^-4)): 96%
- Zone of inhibition ([1]; InA dilution D (10^-4)): 1.49 cm
- Amount of peptide left [2]: 469 pmol
- Conc. [2]: 156 pmol/µL
- Percent remaining [2]: 96%
- Zone of inhibition [2]: 1.49 cm
- Amount of peptide left (trypsin; Trypsin dilution A (10^-1)): 0 pmol
- Conc. (trypsin; Trypsin dilution A (10^-1)): 0 pmol/µL
- Percent remaining (trypsin; Trypsin dilution A (10^-1)): 0%
- Zone of inhibition (trypsin; [4]): None
- Amount of peptide left (trypsin; Trypsin dilution B (10^-2)): 0 pmol
- Conc. (trypsin; Trypsin dilution B (10^-2)): 0 pmol/µL
- Percent remaining (trypsin; Trypsin dilution B (10^-2)): 0%
- Zone of inhibition (trypsin; [5]): None
- Amount of peptide left (trypsin; Trypsin dilution C (10^-3)): 34 pmol
- Conc. (trypsin; Trypsin dilution C (10^-3)): 11 pmol/µL
- Percent remaining (trypsin; Trypsin dilution C (10^-3)): 6.8%
- Zone of inhibition (trypsin; [6]): 0.93 cm
- Amount of peptide left (trypsin; Trypsin dilution D (10^-4)): 131 pmol
- Conc. (trypsin; Trypsin dilution D (10^-4)): 44 pmol/µL
- Percent remaining (trypsin; Trypsin dilution D (10^-4)): 27%
- Zone of inhibition (trypsin; [7]): 1.25 cm
- Amount of peptide left (trypsin; [8]): 373 pmol
- Conc. (trypsin; [8]): 124 pmol/µL
- Percent remaining (trypsin; [8]): 77%
- Zone of inhibition (trypsin; [9]): 1.45 cm

Compound: CC[C@@H](C)[C@@H](NC(=O)CNC(=O)[C@@H](CC(=O)O)NC(=O)[C@@H](CCCNC(=N)N)NC(=O)[C@H](NC(=O)[C@@H](CC(N)=O)NC(=O)[C@@H](CCC(N)=O)NC(=O)CNC(=O)[C@H](NC(=O)[C@@H](CCCCN)NC(=O)[C@@H](CCC(=O)O)NC(=O)[C@H](NC(=O)[C@@H](CCCCN)NC(=O)[C@@H](CCCCN)NC(=O)[C@@H](Cc1ccccc1)NC(=O)[C@@H](CC(C)C)NC(=O)[C@@H](CCCCN)NC(=O)[C@@H](Cc1c[nH]c2ccccc12)NC(=O)[C@H](N)CCCCN)[C@H](C)CC)C(C)C)[C@H](C)CC)C(=O)N[C@@H](C(=O)N[C@H](CCCCN)C(=O)N[C@H](C)C(=O)NCC(=O)N1CCC[C@@H]1C(=O)N[C@H](C)C(=O)N[C@@H](C(=O)N[C@H](C)C(=O)N[C@@H](C(=O)N[C@@H](C(=O)NCC(=O)N[C@H](CCC(N)=O)C(=O)N[C@H](C)C(=O)N[C@@H](C(=O)N[C@H](CCC(N)=O)C(=O)N[C@@H](C(=O)N[C@H](C)C(=O)N[C@H](CCCCN)C(N)=O)[C@H](C)CC)[C@H](C)O)C(C)C)C(C)C)C(C)C)[C@H](C)CC [Compound 2] (HELM PEPTIDE1{[dK].[dW].[dK].[dL].[dF].[dK].[dK].[dI].[dE].[dK].[dV].G.[dQ].[dN].[dI].[dR].[dD].G.[dI].[dI].[dK].[dA].G.[dP].[dA].[dV].[dA].[dV].[dV].G.[dQ].[dA].[dT].[dQ].[dI].[dA].[dK].[am]}$$$$V2.0)
- Lethal Concentrations D21 (E. coli D21): 0.3 µM
- Lethal Concentrations OT97 (P. aeruginosa OT97): 0.8 µM
- Lethal Concentrations Bs11 +ME (B. subtilis Bs11): 30 µM
- Lethal Concentrations Bs11 (B. subtilis Bs11): 3 µM
- Lethal Concentrations Staph (S. aureus Cowan 1): > 300 µM
- Lethal Concentrations Strep (S. pyogenes): 2 µM
- Lethal Concentrations SRC (Sheep red cells): > 300 µM
- Amount of peptide left ([1]; InA dilution A (10^-1)): 512 pmol
- Conc. ([1]; InA dilution A (10^-1)): 171 pmol/µL
- Percent remaining ([1]; InA dilution A (10^-1)): 106%
- Zone of inhibition [1, 3]: 1.54 cm
- Amount of peptide left ([1]; InA dilution B (10^-2)): 468 pmol
- Conc. ([1]; InA dilution B (10^-2)): 156 pmol/µL
- Percent remaining ([1]; InA dilution B (10^-2)): 96%
- Zone of inhibition ([1]; InA dilution B (10^-2)): 1.52 cm
- Amount of peptide left ([1]; InA dilution C (10^-3)): 468 pmol
- Conc. ([1]; InA dilution C (10^-3)): 156 pmol/µL
- Percent remaining ([1]; InA dilution C (10^-3)): 96%
- Zone of inhibition ([1]; InA dilution C (10^-3)): 1.52 cm
- Amount of peptide left ([1]; InA dilution D (10^-4)): 448 pmol
- Conc. ([1]; InA dilution D (10^-4)): 149 pmol/µL
- Percent remaining ([1]; InA dilution D (10^-4)): 92%
- Zone of inhibition ([1]; InA dilution D (10^-4)): 1.51 cm
- Amount of peptide left [2]: 535 pmol
- Conc. [2]: 178 pmol/µL
- Percent remaining [2]: 110%
- Zone of inhibition [2]: 1.55 cm
- Amount of peptide left (trypsin; Trypsin dilution A (10^-1)): 535 pmol
- Conc. (trypsin; Trypsin dilution A (10^-1)): 178 pmol/µL
- Percent remaining (trypsin; Trypsin dilution A (10^-1)): 110%
- Zone of inhibition (trypsin; [4]): 1.55 cm
- Amount of peptide left (trypsin; Trypsin dilution B (10^-2)): 489 pmol
- Conc. (trypsin; Trypsin dilution B (10^-2)): 163 pmol/µL
- Percent remaining (trypsin; Trypsin dilution B (10^-2)): 101%
- Zone of inhibition (trypsin; [5]): 1.53 cm
- Amount of peptide left (trypsin; Trypsin dilution C (10^-3)): 512 pmol
- Conc. (trypsin; Trypsin dilution C (10^-3)): 171 pmol/µL
- Percent remaining (trypsin; Trypsin dilution C (10^-3)): 106%
- Zone of inhibition (trypsin; [6]): 1.54 cm
- Amount of peptide left (trypsin; Trypsin dilution D (10^-4)): 489 pmol
- Conc. (trypsin; Trypsin dilution D (10^-4)): 163 pmol/µL
- Percent remaining (trypsin; Trypsin dilution D (10^-4)): 101%
- Zone of inhibition (trypsin; [7]): 1.53 cm
- Amount of peptide left (trypsin; [8]): 512 pmol
- Conc. (trypsin; [8]): 171 pmol/µL
- Percent remaining (trypsin; [8]): 106%
- Zone of inhibition (trypsin; [9]): 1.54 cm
